In patent US10195204B2, “Methods of treating hemoglobinopathies” (DUKE UNIVERSITY, priority 2011, dated 2019):
Where two headings read alike, the source gives them in different places.

Assays:
[1] = test system: ERK1/2 phosphorylation in SS RBCs; assay: ERK1/2 phosphorylation in SS RBCs, Western blot (phosphoERK normalized to total ERK); type: cell-based, human
Experimental: Aliquots of packed RBCs were treated with various reagents to affect cAMP signaling or protein phosphorylation. […] Treated RBCs were then washed 5 times with 4 ml PBS with Ca^2+ and Mg^2+. Normal RBCs were used as controls. Prior to adhesion assays, treated RBCs were labeled with PKH 26 red fluorescent cell linker kit (Sigma), following the manufacturer's instructions.
Treated packed RBCs were lysed with hypotonic buffer (5 mM Na2HPO4+1 mM EDTA+0.1% NaN3, pH 8) containing 2 mM phenylmethylsulphonylfluoride (PMSF, Sigma), phosphatase inhibitor cocktail (Sigma) and protease inhibitor cocktail (Sigma). Protein separation by polyacrylamide gel electrophoresis using equal amounts of total RBC membrane ghost proteins per lane, after correcting total protein measurements for residual hemoglobin content, and Western blot^19 using the appropriate Ab were then performed. Mouse 3T3/A31 fibroblast lysate was used as a ERK1/2 positive control for immunoblots. For total ERK1/2, membranes blotted with anti-phosphoERK Ab were stripped and reexposed to Western blotting using anti-ERK1/2 Ab. Bands were analyzed densitometrically using ImageJ software downloaded from the NIH website. PhosphoERK1/2 data were normalized according to total ERK1/2 and are presented as fold change in ERK phosphorylation.

[2] = test system: cAMP production in SS RBCs
Experimental: Whole cell cAMP accumulation was assayed to assess the functional capacity of the RBC β2-ARs to stimulate the production of cAMP. Washed packed RBCs were pre-treated with IBMX to define basal cAMP accumulation, followed by treatment with epinephrine for 1 min or 30 min, or forskolin. Samples were placed on ice, stimulation was halted, and cells fixed by the addition of 12.5 mM EDTA. Cell samples were boiled, clarified by centrifugation and assayed for cAMP content by radioimmunoassay as described previously.^22 Basal cAMP production was subtracted from the total cAMP produced by the cells. The amounts of cAMP were then normalized as fmol cAMP/10^8 RBCs.

[3] = test system: glycophorin A phosphorylation; assay: 32P labeling, glycophorin A immunoprecipitation and phosphorylation in SS RBCs; type: cell-based, human
Excerpt: Glycophorin A phosphorylation and immunoprecipitation. […] Cells were then washed 4 times. […] Blots were immunostained with anti-glycophorin A mAb.

[4] = test system: human SS RBC adhesion to vascular endothelium and vaso-occlusion
Experimental: All animal experiments were carried out in accordance with protocols approved by the Duke University Animal Care and Use Committee. Female athymic homozygous nude mice (nu-/nu-) were between 8-12 weeks of age (Charles River Laboratories, Wilmington, Mass.).
General anesthesia was achieved by intra-peritoneal injection of 100 mg/kg of ketamine (Abbott Laboratory, Chicago, Ill.) and 10 mg/kg of xylazine (Bayer, Shawnee Mission, Kans.). A double-sided titanium frame window chamber was surgically implanted into the dorsal skin fold under sterile conditions using a laminar flow hood. Surgery involved carefully removing the epidermal and dermal layers of one side of a dorsal skin fold, exposing the blood vessels of the subcutaneous tissue adjacent to the striated muscles of the opposing skin fold, and then securing the two sides of the chamber to the skin using stainless steel screws and sutures. A glass window was placed in the chamber to cover the exposed tissue and secured with a snap ring. Subsequently, animals were kept at 32-34° C. until in vivo studies were performed 3 days post-surgery.
Murine recombinant TNF-α was dissolved in normal saline at a concentration of 0.1 mg/mL and mice bearing dorsal-skin window chamber implants were given a single intraperitoneal (IP) injection of 20 μg/kg TNF-α and control animals received same volume of normal saline. […] Thirty minutes later, labeled human SS RBCs (300 μl hematocrit (Hct) 50% in PBS with Ca^2+ and Mg^2+) were then infused. […] Animals were placed on the stage of an Axoplan microscope (Carl Zeiss, Thornwood, N.Y.); temperature was maintained at 37° C. using a thermostatically controlled heating pad. […] Microcirculatory events and cell adhesion were simultaneously recorded using a Trinitron Color video monitor (PVM-1353 MD, Sony) and JVC videocassette recorder (BR-53784, VCR King, Durham, N.C.) connected to a digital video camera C2400 (Hamamatsu Photonics K.K., Japan). Arterioles were distinguished from venules based on: 1) observation of divergent flow as opposed to convergent flow; 2) birefringent appearance of vessel walls using transillumination, which is characteristic of arteriolar vascular smooth muscle; and 3) relatively straight vessel trajectory without evidence of tortuosity. Cell adherence was quantitated by considering cells attached to the vessel walls and immobile for 1 minute. The percentage of the length of vessels with diameters≤25 μm or >25 μm, occupied by SS RBCs was quantified as: % venular length occupied by SS RBCs=length of vessel wall with adherent cells/total length of the vessel segments analyzed×100.

[5] = test system: human SS RBC adhesion in inflamed venules and vaso-occlusion; assay: Intravital microscopy in TNF-α-treated nude mice infused with human SS RBCs treated ex vivo with MEK inhibitor; settings: for percentage of venular length occupied by treated SS RBCs: compared to sham
Excerpt: For some in vivo adhesion studies, packed SS RBCs were fluorescently labeled with the dye Dil (Molecular Probes Inc., Eugene, Oreg.), following the manufacturer's instructions. […] Cell morphology was checked by microscopy.

[6] = test system: PMN adhesion to non-activated HUVECs; assay: Adhesion to HUVECs of PMNs co-incubated with epinephrine-stimulated SS RBCs; type: cell-based, human; settings: SS RBCs pre-incubated with inhibitor for 1 hour, then 20 nM epinephrine 1 min
Experimental: The cells were then washed prior to admixture with fluorescently-labeled native polymorphonuclear cells (PMNs) obtained from healthy donors at a RBC:PMN ratio of 10:1. After co-incubation for 30 minutes at 37° C., cells mixtures were assayed for their ability to adhere to non-activated HUVECs. […] Downregulation of RBC adhesion receptor activity by targeting ERK may not only decrease SS RBC adhesion to the endothelium but also reduce RBC-stimulated leukocyte activation.

[7] = 2 mg/kg U0126 in 0.4% DMSO i.v. 30 min prior to RBC infusion
[8] = SS RBCs treated ex vivo with 10 μM inhibitor for 1 hour, n=5

SMILES: CNC[C@H](O)c1ccc(O)c(O)c1 [epinephrine]
- ERK phosphorylation vs 1 min exposure [1]: decreased
- ERK phosphorylation vs sham-treated [1]: markedly increased
- fold increase in ERK phosphorylation [1]: 2.1±0.1 fold
- increase in ERK phosphorylation above basal levels [1]: 2±0.17 fold
- patients whose SS RBCs exhibited more than 1.5-fold elevation in ERK phosphorylation (responders) [1]: 40%
- intracellular cAMP ([2]; epinephrine 1 min, about 50% of samples (n=19)): accumulation of high levels of intracellular cAMP
- cAMP levels ([2]; epinephrine 30 min): uniformly declined
- increase in glycophorin A phosphorylation over sham-treated SS RBCs ([3]; epinephrine in the presence of SPI): 2.93±0.35 fold

SMILES: N#CC(=C(/N)Sc1ccccc1N)/C(C#N)=C(\N)Sc1ccccc1N [U0126]
- effect on forskolin-induced ERK1/2 phosphorylation ([1]; SS RBCs): prevented
- effect on epinephrine-induced ERK1/2 phosphorylation ([1]; SS RBCs pre-incubated with inhibitor, then 20 nM epinephrine 1 min): significantly inhibited
- effect on PTx-induced ERK phosphorylation ([1]; SS RBCs, 2 μg/ml PTx): blocked
- vaso-occlusion ([4]; 0.2 mg/kg U0126 in 0.04% DMSO i.v. 30 minutes prior to RBC infusion): no apparent vaso-occulsion
- SS RBC adhesion to vascular endothelium [4, 7]: very little adhesion
- vaso-occlusion [4, 7]: no apparent vaso-occlusion
- percentage venular length occupied by SS RBCs ([4]; U0126 at 0.2 mg/kg, vessel diameter >25 μm): did not significantly reduce
- percentage venular length occupied by SS RBCs ([4]; U0126 at 0.2 and 2 mg/kg, vessels 25 μm in diameter, vs placebo): significant decrease
- human SS RBC adhesion in inflamed venules [5, 8]: dramatically decreased
- vessel obstruction [5, 8]: prevented vessel obstruction
- percentage of venular length occupied by treated SS RBCs ([5]; vessels 25 μm in diameter): significantly decreased
- percentage of venular length occupied by treated SS RBCs ([5]; vessels with a diameter >25 μm): significantly decreased
- ability of epinephrine-activated SS RBCs to promote neutrophil (PMN) adhesion to HUVECs [6]: significantly decreased
- effect on combined effect of epinephrine and SPI on glycophorin A phosphorylation ([3]; SS RBCs pre-incubated with 10 μM U0126 for 1 h): significantly decreased
